Source: patent publication US6015820A, “4-Aryl-thio-pyridin-2(1H)-ones, medicines containing them and their uses in the treatment of illnesses linked to HIV” (priority 1995, dated 2000)
Where two headings read alike, the source gives them in different places.

Tests used:
Type in all cases: cell-based
HIV-1 LAI = assay: anti-HIV-1 activity: replication of HIV-1 LAI on CEM-SS cells
Method: The CEM-SS and the HIV-1 resistant to Nevirapine (N119) carrying a point mutation at codon 181 of the IT, were supplied respectively by P. NARA and D. RICHMAN through the intermediary of the AIDS Research and Reference Reagent Program, Division of AIDS, NIAID, NIH (USA) (Catalogue references : No. 776 and No. 1392).
The virus production was measured by quantifying the activity of the inverse transcriptase associated with viral particles released into the culture supernatant. In short, cells were infected with 100 TCID50 for 30 minutes; after adsorption of the virus, unbound particles were removed by two washings and the cells were cultivated in the presence of different concentrations of the compounds tested for 5 days before determining the viral production. The concentration inhibiting 50% of the viral multiplication (IC50) came from the computer plot of the median effect of the dose effect results (Chou et al. Elsevier Science Publishers, Cambridge U.K. (1985), 19-28).

[1] = cytotoxicity on non-infected cells (MTT test); conditions: human; Table 2; non-infected CEM-SS cells, MTT, 5 days
Method: In parallel experiments, the cytotoxicity of the molecules was measured on non-infected cells, after an incubation of 5 days in the presence of these molecules, by using a […] titration (MTT test) based on the ability of the mitochondrial dehydrogenases of the living cells to reduce 3-(4,5-dimethylthiazol-2-yl)-2,5-diphenyltetrazolium bromide in formazan (Mosmann et al. J. Immunol. Methods ([…]), 65, 55-63). The concentration cytotoxic at 50% (CC50) is the concentration at which the DO540 has been reduced to half and is calculated by using the program mentioned above.

isolated virion HIV-1LAI = assay: infectivity of the isolated virion after treatment with inhibitors (HT4LacZ cells)
Method: H9 cells chronically infected with HIV-1LAI (10^8 /ml) were cocultivated with MT4 cells (10^8 /ml) for 48 hours in an RMPI medium supplemented by 10% of calf foetal serum (CFS). The cells were then removed by centrifugation and then the supernatant liquid was filtered (0.45 μm) to remove residual cells and cell debris.
After having been incubated with the various inhibitors, the viral supernatants (200 μl) were deposited in the filtering part of a VectaSpin tube (WHATMAN) fitted with an ANAPORE membrane of porosity 0.02 μm. For 10 minutes they were subjected to centrifugation, the acceleration of which reached 6000 g at the filtering membrane. The viral residuums thereby obtained (10-15 μl ) were washed 3 times under the same conditions with 500 μl of RPMI then restored to their initial volumes with RPMI containing 10% of CFS.
The HT4LacZ-1 cells were kept in a DMEM medium (glucose 4.5 g/l) supplemented with 10% of calf foetal serum in the presence of Gentamycin (50 mg/l). These cells stemmed from Hela cells in which had been cloned, on the one hand the gene coding for the human CD4 so as to render them susceptible to infection by the HIV (Chesebro and Wehrly, 1988, J. Virol., 62, 3779-3788), and on the other hand the gene for β-Galactosidase which, placed under the dependent of the LTR of the HIV-1 served as a marker for the viral infection (Rocancourt et al. (1990) J. Virol. 1990 64-6, 2660-2688). When the virus infects such cells after its integration into the cellular genome, the production of the regulatory protein TAT activates the LTR of the HIV. The result is an activation of the gene of β-Galactosidase which leads to its production in the intracellular medium and more particularly in the nucleus. It is this protein that serves as a marker of the infection.
The evening of day 0, the HT4LacZ-1 cells were diluted at the rate of 75000 cells per ml of medium. 100 μl of this suspension was then distributed over a flat bottomed plate with 96 wells and was cultivated overnight at 37° C. (5% of CO2).
The morning of day 1, the supernatant liquid was removed by aspiration. Each well was then complemented with 200 μl of the viral supernatant dilutions to be tested. Each dilution was made in a DMEM medium (glucose 4.5 g/l) supplemented with 10% of CFS. The plates were then placed in an environment at 37° C. in the presence of 5% of CO2.
After 48 hours of culture, the supernatant liquid was aspirated, then each well was washed 3 times in PBS before being complemented with 200 μl of developing buffer (Tris-HCl 50 mM pH=8.5, ONPG 5 mg/ml β-mercapto-ethanol 7 μl/ml Triton×100 0.05%). After 4 hours of incubation at 37° C., the optical density of each well was measured.
The concentration of each of the inhibitors of the IT of the HIV-1 was adjusted to 50 mM in DMSO. The later dilutions were carried out on RPMI 1640. 2 μl of suitable dilutions of each of these inhibitors were added to 198 μl of a freshly unfrozen viral suspension. After 3 hours of incubation at ambient temperature, these suspensions were filtered on 0.02 μ VecraSpin tubes, then washed 3 times with 500 μl of RPMI 1640. The viral residuums were then adjusted to 200 μL with the culture medium (RPMI-10% CFS), then tested with regard to their infectivity on HT4LacZ cells.

[2] = Human immunodeficiency virus 1, 120 h, Table 2, HIV-1 LAI, CEM-SS cells, 5 days, read-out: IC50, anti-HIV-1 activity
[3] = Table 2, HIV-1 LAI, CEM-SS cells
[4] = Human immunodeficiency virus 1, 3 h, read-out: Activity of the isolated virions after treatment
[5] = Human immunodeficiency virus 1, 1 μM inhibitor, 3 h, 100 TCID50, compared with viral supernatant subjected to same treatments, mean of 1 to 4 experiments, read-out: Activity of the isolated virions after treatment
[6] = Human immunodeficiency virus 1, 10 μM inhibitor, 3 h, 100 TCID50, compared with viral supernatant subjected to same treatments, mean of 1 to 4 experiments, read-out: Activity of the isolated virions after treatment

| Compound | IC50 (HIV-1 LAI; [2]) | SI (selectivity index) (HIV-1 LAI; [3]) | CC50 at 120 h [1] | other results |
| --- | --- | --- | --- | --- |
| Cc1cn([C@H]2C[C@H](N=[N+]=[N-])[C@@H](CO)O2)c(=O)[nH]c1=O [AZT, reference compound] | 0.003 µM | > 33333 | > 100 µM | IC50 (HIV-1 LAI; Human immunodeficiency virus 1, CEM-SS, Table 4, HIV-1 (LA1)/CEMSS, read-out: IC50): 0.00084 µM; activity at 1 µM (isolated virion HIV-1LAI; [4]): 99%; activity at 10 µM (isolated virion HIV-1LAI; [4]): 99%; activity on the isolated virion (in words) (isolated virion HIV-1LAI): totally inactive |
| CCOCc1c[nH]c(=O)c(N)c1Sc1cc(C)cc(C)c1 [Compound 8g, 3-amino-5-ethoxymethyl-4-(3', 5'-dimethylphenyl)thio-pyridin-2(1H)-one] | 0.02 µM | > 500 | > 10 µM | – |
| Cc1cn([C@H]2C=C[C@@H](CO)O2)c(=O)[nH]c1=O [d4T] | – | – | – | activity at 1 µM (isolated virion HIV-1LAI; [4]): 130%; activity at 10 µM (isolated virion HIV-1LAI; [4]): 127%; activity on the isolated virion (in words) (isolated virion HIV-1LAI): totally inactive |
| Cc1c[nH]c(=O)c([N+](=O)[O-])c1Sc1nc2ccccc2[nH]1 [Compound 9c, 5-methyl-3-nitro-4-(benzimidazol-2-yl)thiopyridin-2(1H)-one] | 43.5 µM | > 1 | 54.5 µM | – |
| Cc1ccnc2c1NC(=O)c1cccnc1N2C1CC1 [Nevirapine] | – | – | – | activity at 0.1 µM (isolated virion HIV-1LAI; Human immunodeficiency virus 1, 0.1 μM inhibitor, 3 h, 100 TCID50, compared with viral supernatant subjected to same treatments, mean of 1 to 4 experiments, read-out: Activity of the isolated virions after treatment): 86%; activity at 1 µM (isolated virion HIV-1LAI; [5]): 86%; activity at 10 µM (isolated virion HIV-1LAI; [6]): 111%; activity on the isolated virion (in words) (isolated virion HIV-1LAI): totally inactive |
| O=c1[nH]cnc2c1ncn2[C@H]1CC[C@@H](CO)O1 [ddl] | – | – | – | activity at 1 µM (isolated virion HIV-1LAI; [5]): 100%; activity at 10 µM (isolated virion HIV-1LAI; [6]): 100%; activity on the isolated virion (in words) (isolated virion HIV-1LAI): totally inactive |
| Cc1cc(O)nc(Sc2c(C)cnc(O)c2[N+](=O)[O-])n1 [Compound 9b, 5-methyl-3-nitro-4-(4'-hydroxy-6'-methylpyrimidin-2-yl)thiopyridin-2(1H)-one] | > 100 µM | – | > 100 µM | – |
| Cc1cc(C)cc(Sc2c(C)cnc(O)c2NC(=O)Cc2ccccc2)c1 [Compound 11e, 5-methyl-3-phenylacetamido-4-(3', 5'-dimethylphenyl)thio-pyridin-2(1H)-one] | > 10 µM | – | > 10 µM | – |
| CCOCc1c[nH]c(=O)c([N+](=O)[O-])c1Sc1cc(C)cc(C)c1 [Compound 7g, 5-ethoxymethyl-3-nitro-4-(3', 5'-dimethylphenyl)thio-pyridin-2(1H)-one] | 0.005 µM | > 2000 | > 10 µM | – |
| Cc1c[nH]c(=O)c([N+](=O)[O-])c1Sc1ccccn1 [Compound 9h, 5-methyl-3-nitro-4-(2-pyridyl) thio-pyridin-2(1H)-one] | 18 µM | > 1 | 28.5 µM | – |
| Nc1ccn([C@@H]2CS[C@H](CO)O2)c(=O)n1 [Compound 3TC] | – | – | – | activity at 1 µM (isolated virion HIV-1LAI; [5]): 100%; activity at 10 µM (isolated virion HIV-1LAI; [6]): 100%; activity on the isolated virion (in words) (isolated virion HIV-1LAI): totally inactive |
| Cc1cc(C)nc(Sc2c(C)c[nH]c(=O)c2[N+](=O)[O-])n1 [Compound 9a, 5-methyl-3-nitro-4-(4', 6'-dimethylpyrimidin-2-yl)thiopyridin-2(1H)-one] | 17.5 µM | > 1 | 19.5 µM | – |
| Cc1cc(C)cc(Sc2c(C)c[nH]c(=O)c2NC=O)c1 [Compound 11a, 3-formamido-5-methyl-4-(3', 5'-dimethylphenyl)thio-pyridin-2(1H)-one] | 6.6 µM | > 15 | > 100 µM | – |
| Cc1cnc(O)c([N+](=O)[O-])c1Sc1ccccc1 [Compound 7d, 5-methyl-3-nitro-4-phenylthio-pyridin-2(1H)-one] | > 10 µM | – | > 10 µM | – |
| CCOC(=O)Nc1c(Sc2cc(C)cc(C)c2)c(C)c[nH]c1=O [Compound 11f, 5-methyl-3-N-ethoxycarbamoyl-4-(3', 5'-dimethylphenyl)thio-pyridin-2(1H)-one] | 7.5 µM | > 13 | > 100 µM | – |
| Cc1c[nH]c(=O)c([N+](=O)[O-])c1Sc1nc2ccccc2o1 [Compound 9d, 5-methyl-3-nitro-4-(benzoxazol-2-yl)thiopyridin-2(1H)-one] | 5.5 µM | > 2 | 16 µM | – |
| Cc1c[nH]c(=O)c([N+](=O)[O-])c1Sc1nccn1C [Compound 9g, 5-methyl-3-nitro-4-(N-methylimidazol-2-yl)thio-pyridin-2(1H)-one] | 56 µM | > 1 | 68.5 µM | – |
| Cc1cnc(O)c([N+](=O)[O-])c1Sc1nc2ccccc2s1 [Compound 9e, 5-methyl-3-nitro-4-(benzothiazol-2-yl)thio-pyridin-2(1H)-one] | 14.5 µM | – | 13.5 µM | – |
| Cc1cnc(O)c(N)c1Sc1nc2ccccc2o1 [Compound 10, 3-amino-5-methyl-4-(benzoxazol-2-yl)thio-pyridin-2(1H)-one] | 8 µM | – | 7.5 µM | – |
| Cc1c[nH]c(=O)c([N+](=O)[O-])c1SC1=NCCS1 [Compound 9f, 5-methyl-3-nitro-4-(thiazolin-2-yl) thio-pyridin-2(1H)-one] | 17 µM | > 1 | 21.5 µM | – |
| CCCCCCC(=O)Nc1c(Sc2cc(C)cc(C)c2)c(C)c[nH]c1=O [Compound 11d, 3-heptanamido-5-methyl-4-(3', 5'-dimethylphenyl)thio-pyridin-2(1H)-one] | > 10 µM | – | > 10 µM | – |
